System: HCV 1b-377-neo replicon cells
Assay: HCV replicon FRET assay
Type: cell-based
Details: Hepatitis C virus; HCV replicon; read-out: Activity (EC50)
Source text: The HCV replicon cell line was isolated from colonies as described by Lohman, et. al. (Science 1999, 285, 110-113, expressly incorporated by reference in its entirety) and used for all experiments. The HCV replicon has the nucleic acid sequence set forth in EMBL Accession No.: AJ242652, the coding sequence of which is from nt 1801 to 7758.
The coding sequence of the published HCV replicon was synthesized by Operon Technologies, Inc. (Alameda, Calif.), and the fall-length replicon was then assembled in plasmid pGem9zf(+) (Promega, Madison, Wis.) using standard molecular biology techniques. The replicon consists of (i) the HCV 5′ UTR fused to the first 12 amino acids of the capsid protein, (ii) the neomycin phosphotransferase gene (neo), (iii) the IRES from encephalomyocarditis virus (EMCV), and (iv) HCV NS3 to NS5B genes and the HCV 3′ UTR. Plasmid DNAs were linearized with ScaI and RNA transcripts were synthesized in vitro using the T7 MegaScript transcription kit (Ambion, Austin, Tex.) according to manufacturer's directions.
To generate cell lines, 4×10^6 Huh-7 cells (kindly provided by R. Bartenschlager and available from Health Science Research Resources Bank, Japan Health Sciences Foundation) were electroporated (GenePulser System, Bio-Rad) with 10 micrograms(“μg”) of RNA transcript and plated into 100-mm dishes. After 24 hours, selective media containing 1.0 milligrams/milliliter (“mg/mL”) G418 was added and media was changed every 3 to 5 days. […] These cell lines were maintained at 37° C., 5% CO2, 100% relative humidity in DMEM (Cat#11965-084) Gibco-BRL, Rockville, Md., with 10% heat inactivated calf serum (Sigma), 10 mL of 100× penicillin/streptomycin (Cat#15140-122) Gibco-BRL, Rockville, Md., Geneticin (Cat#10131-027) Gibco-BRL, Rockville, Md. at 1 mg/mL. One of the cell lines (deposited as ATCC Accession No. PTA-4583 in the American Type Culture Collection) which had approximately 3,000 copies of HCV replicon RNA/cell was used for development of the assay (HCV 1b-377-neo replicon cells).
To perform the HCV FRET screening assay, 96-well cell culture plates were used. The FRET peptide (Anaspec, Inc., San Jose, Calif.) (Taliani et al., Anal. Biochem. 1996, 240, 60-67, hereby incorporated by reference in its entirety) contains a fluorescence donor, EDANS, near one end of the peptide and an acceptor, DABCYL, near the other end. The fluorescence of the peptide is quenched by […] resonance energy transfer (RET) between the donor and the acceptor, but as the NS3 protease cleaves the peptide the products are released from RET quenching and the fluorescence of the donor becomes apparent.
The assay reagent was made as follows: 5X luciferase cell culture lysis (Cat#E153A, Promega, Madison, Wis.) diluted to 1X with dH2O, NaCl added to […] final, the FRET peptide diluted to 20 micromolar (“μM”) final from a 2 mM stock. HCV 1b-377-neo replicon cells were trypsinized, placed into each well of a 96-well plate and allowed to attach overnight. The next day, the test compounds were added to columns 1 through 10; column 11 was media plus DMSO only, and column 12 contained a titration of interferon or an HCV specific inhibitor as a control (1000 units for A12, B12, 100 units for C12, D12, 10 units for E12, F12 and 1 unit for G12, H12). […] In addition, naïve Huh-7 cells could also be used to replace wells A12 and B12 as a background control.
At subsequent various times (typically 72 hours), 10% final volume Alamar blue (Cat#00-100, Trek Diagnostics, Cleveland, Ohio) was added to each well. The plates were returned to the incubator for 5 hours and then read in the Cytoflour (PE Biosystems) to determine Alamar blue conversion in each well as a measure of cellular toxicity.

CC(=O)N1CCC[C@H]1C(=O)Nc1ccc(/C=C/c2ccc(NC(=O)[C@@H]3CCCN3C(=O)c3ccccc3NCc3ccccc3)cc2)cc1 [Example 153]
EC50: 1000 to 10000 nM

O=C(Nc1ccc(/C=C/c2ccc(NC(=O)[C@@H]3Cc4ccccc4N3C(=O)OCc3ccccc3)cc2)cc1)[C@@H]1Cc2ccccc2N1C(=O)OCc1ccccc1 [Example 19]
EC50: 0.1 to 90 nM

CC(=O)N1CC=C[C@H]1C(=O)Nc1ccc(/C=C/c2ccc(NC(=O)[C@@H]3C=CCN3C(=O)Cc3cccnc3)cc2)cc1 [Example 219]
EC50: 0.1 to 90 nM

CC(C)C(=O)N1CCC[C@H]1C(=O)Nc1ccc(/C=C/c2ccc(NC(=O)[C@@H]3CCCN3C(=O)c3ccc(N(C)C)cc3)cc2)cc1 [Example 93]
EC50: 100 to 1000 nM

CC(C)(C)OC(=O)N1CCC[C@H]1C(=O)Nc1ccc(/C=C/c2ccc(NC(=O)[C@@H]3CCCN3C(=O)OC(C)(C)C)cc2)cc1 [Example 21]
EC50: 100 to 1000 nM

CCN(CC)C(=O)N1CCC[C@H]1C(=O)Nc1ccc(/C=C/c2ccc(NC(=O)[C@@H]3CCCN3C(=O)N(CC)CC)cc2)cc1 [Example 289]
EC50: 0.1 to 90 nM

O=C(Nc1ccc(/C=C/c2ccc(NC(=O)[C@@H]3CCCN3C(=O)c3cn[nH]c3)cc2)cc1)[C@@H]1CCCN1C(=O)c1cn[nH]c1 [Example 77]
EC50: 0.1 to 90 nM

O=C(Nc1ccc(/C=C/c2ccc(NC(=O)[C@@H]3CCCN3C(=O)COc3cccc(Cl)c3)cc2)cc1)[C@@H]1CCCN1C(=O)COc1cccc(Cl)c1 [Example 38]
EC50: 100 to 1000 nM

O=C(Nc1ccc(/C=C/c2ccc(NC(=O)[C@@H]3CCCN3C(=O)c3ccco3)cc2)cc1)[C@@H]1CCCN1C(=O)c1ccco1 [Example 67]
EC50: 100 to 1000 nM

Cc1nnsc1C(=O)N1CCC[C@H]1C(=O)Nc1ccc(/C=C/c2ccc(NC(=O)[C@@H]3CCCN3C(=O)c3snnc3C)cc2)cc1 [Example 199]
EC50: 0.1 to 90 nM

Cc1cccnc1C(=O)N1CCC[C@H]1C(=O)Nc1ccc(/C=C/c2ccc(NC(=O)[C@@H]3CCCN3C(=O)c3ncccc3C)cc2)cc1 [Example 177]
EC50: 1000 to 10000 nM

CC(=O)c1ccccc1C(=O)N1CCC[C@H]1C(=O)Nc1ccc(/C=C/c2ccc(NC(=O)[C@@H]3CCCN3C(=O)c3ccccc3C(C)=O)cc2)cc1 [Example 135]
EC50: 1000 to 10000 nM

Cc1cccc(C(=O)N2CCC[C@H]2C(=O)Nc2ccc(/C=C/c3ccc(NC(=O)[C@@H]4CCCN4)cc3)cc2)n1 [Example 113]
EC50: 1000 to 10000 nM

O=C(Cc1ccccc1)C1C[C@H](O)C[C@H]1C(=O)Nc1ccc(/C=C/c2ccc(NC(=O)[C@@H]3C[C@@H](O)CN3C(=O)Cc3ccccc3)cc2)cc1 (stereo partly drawn) [Example 291]
EC50: 0.1 to 90 nM

COc1ccc2[nH]c(C)c(CC(=O)N3CCC[C@H]3C(=O)Nc3ccc(/C=C/c4ccc(NC(=O)[C@@H]5CCCN5C(=O)Cc5c(C)[nH]c6ccc(OC)cc56)cc4)cc3)c2c1 [Example 34]
EC50: 0.1 to 90 nM

O=C(Nc1ccc(/C=C/c2ccc(NC(=O)[C@@H]3CCCN3C(=O)C3CC(=O)N(CCc4cccs4)C3)cc2)cc1)[C@@H]1CCCN1C(=O)C1CC(=O)N(CCc2cccs2)C1 (stereo partly drawn) [Example 156]
EC50: 1000 to 10000 nM

[N-]=[N+]=Nc1ccc(C(=O)N2CCC[C@H]2C(=O)Nc2ccc(/C=C/c3ccc(NC(=O)[C@@H]4CCCN4C(=O)c4ccc(N=[N+]=[N-])cc4)cc3)cc2)cc1 [Example 60]
EC50: 1000 to 10000 nM

O=C(Nc1ccc(/C=C/c2ccc(NC(=O)[C@@H]3CCCN3C(=O)c3cc(F)ccc3F)cc2)cc1)[C@@H]1CCCN1C(=O)c1cc(F)ccc1F [Example 108]
EC50: 100 to 1000 nM

COc1ccccc1C(=O)N1CCC[C@H]1C(=O)Nc1ccc(/C=C/c2ccc(NC(=O)[C@@H]3CCCN3C(=O)Cc3cccnc3)cc2)cc1 [Example 142]
EC50: 100 to 1000 nM

Cc1cc(CC(=O)N2CCC[C@H]2C(=O)Nc2ccc(/C=C/c3ccc(NC(=O)[C@@H]4CCCN4C(=O)C4CCC4)cc3)cc2)on1 [Example 96]
EC50: 0.1 to 90 nM

O=C1N[C@H]2[C@H](CS[C@H]2CCCCC(=O)N2CCC[C@H]2C(=O)Nc2ccc(/C=C/c3ccc(NC(=O)[C@@H]4CCCN4C(=O)Cc4ccccc4)cc3)cc2)N1 [Example 109]
EC50: 0.1 to 90 nM

Reference: patent US8143288B2, “Inhibitors of HCV replication” (priority 2005, dated 2012)
